Reference: paper PMC11267282, “Ultrashort‐Peptide‐Responsive Gene Switches for Regulation of Therapeutic Protein Expression in Mammalian Cells” (Advanced Science, 2024)
“Also recorded” adds a separate entry of the source. Where a SMILES comes first, the peptide text is derived from it.

Columns and labels:
HEK-293T cells [1] = test: Cell growth kinetics of HEK-293 cells; assay type: cell-based, human; details: non-transformed HEK-293T, 10-250 µM, 48 h, n = 4
Description: (§1) HEK‐293T cells were seeded in a 10 cm diameter dish at a density of 2.5 × 10^5 cells/ml. After 24 h of culture, the cells were transfected with 35 µg of pJH3 (PhCMV‐SEAP‐pA) overnight, then resuspended and evenly distributed into two 24‐well plates. The treatment groups were treated with XIP at the indicated concentration. Samples were collected at successive time points for two days to quantify viable cells and SEAP production.

[2] = test system: T1D mice with HEK-XIP implants; test: Serum inflammatory cytokines (ELISA); assay type: in vivo, mouse; details: four weeks after implantation, n = 5
Description: The concentrations of interferon gamma (IFN‐γ), interleukin‐6 (IL‐6), and tumor necrosis factor alpha (TNF‐α) in mouse serum were assessed by the use of specific enzyme‐linked immunosorbent assay (ELISA) kits. IFN‐γ levels were analyzed using the IFN gamma mouse ELISA kit (cat. no. ab282874, Abcam), IL‐6 levels were determined with the IL‐6 mouse ELISA kit (cat. no. ab100712, Abcam), and TNF‐α levels were quantified utilizing the TNF alpha mouse ELISA kit (cat. no. BMS607HS, ThermoFisher). Freund's Complete Adjuvant (cat. no.: 344289, Sigma‐Aldrich) and lipopolysaccharides (cat. no.: L2630‐10MG, Sigma‐Aldrich) were utilized to induce cytokine production as positive controls. Blood samples were collected from mice treated with adjuvant and LPS 24 hours post‐treatment. The quantification of cytokines from these groups was conducted using the same ELISA kit.

[3] = test system: engineered mammalian cells; test: Resazurin-based cell viability assay
Description: Cells were incubated with resazurin (cat. no. R7017, Sigma‐Aldrich, USA) at a concentration of 50 µg ml^−1 for 2 h. Then fluorescence was assayed with a plate reader (Tecan Spark, Tecan Group Ltd., Switzerland) at excitation and emission wavelengths of 540 and 590 nm, respectively. The fluorescence intensity of non‐induced cells was set to 100%.

HEK-293T cells [4] = test: Constitutive recombinant SEAP production (pJH3); assay type: cell-based, human; details: pJH3-transfected, 10-250 µM, 48 h, n = 4
Description: as §1
SEAP reporter levels in cell culture supernatants were quantified using a colorimetric assay. In brief, 20 µl of cell culture supernatant was mixed with 80 µl of PBS buffer (cat. no. 14190144, ThermoFisher) and heat‐inactivated at 65 °C for 30 min. Then 80 µl of 2x SEAP assay buffer (20 mM homoarginine, 1 mM MgCl2, 21% diethanolamine, pH 9.8) was mixed with 20 µl of substrate solution, and 100 µl of the buffer‐substrate mixture was added to 100 µl of the diluted heat‐inactivated sample. Absorbance at 405 nm was recorded using a plate reader (Tecan Spark, Tecan Group Ltd., Switzerland) for 30 min at 37 °C to determine the SEAP levels.

[5] = test system: CD4 / CD8 T cells of immunized mice; test: T-cell response, intracellular cytokine staining; assay type: in vivo, mouse; details: FACS intracellular cytokine staining, spleen and draining lymph nodes, n = 3
Description: Mice were immunized at 2‐week intervals.
Isolated lymphocytes from spleens and lymph nodes were placed in a U‐bottom 96‐well plate and resuspended in 100 µl complete RPMI‐1640 medium, which contains FBS (10% v/v), HEPES (pH 7.2∼7.5, 1% v/v, Gibco), penicillin/streptomycin (1% v/v, Gibco), sodium pyruvate (1% v/v, Gibco) and 2‐mercaptoethanol (0.1% v/v, Gibco). Cells were stimulated with 1 µM cognate peptides or with Cell Stimulation Cocktail (a cocktail of phorbol 12‐myristate 13‐acetate (PMA) and ionomycin, Invitrogen) as positive controls at 37 °C for 4 h, in the presence of 10 µM brefeldin A (MedChemExpress) to inhibit cytokine secretion. Next, the cells were washed with 150 µl FACS buffer, and centrifuged with 1,500 g for 2 min. The supernatant was discarded and the cells were blocked with anti‐CD16/32 antibody (1:100, 93, 101302, BioLegend) in 20 µl/well FACS buffer at 4 °C for 15 min. Then 20 µl/well antibody cocktail containing anti‐CD3ε (1:500, 17A2, 100306, BioLegend), anti‐CD4 (1:500, RM4‐5, 100526, BioLegend), anti‐CD8β (1:500, YTS256.7.7, 126606, BioLegend), and anti‐CD45 (1:500, S18009F, 157211, BioLegend) was added to the cell mixture for 20 min incubation at 4 °C. […] Gate margins were determined on the basis of isotype controls and fluorescence‐minus‐one controls.

C57BL/6 mice = test: Antibody analysis for peptide immunogenicity; details: s.c., three doses of 5 mg kg−1 at two-week intervals, with Freund's adjuvant, OD450, n = 3
Description: Eight‐week‐old wild‐type male mice were immunized for peptide immunogenicity assessments. Briefly, peptide solution was premixed 1:1 with Freund's adjuvant in a total volume of 400 µl by thorough vigorous shaking. Then peptide/adjuvant mixes were injected subcutaneously in 30 min at a dose of 5 mg kg^−1. Mice were immunized at 2‐week intervals. Negative controls (mock‐immunized) were also included in the study. One week after the third dose of immunization, blood was sampled for antibody analysis.
For antibody analysis, the peptides were coated on the EIA/RIA plate (cat. no. 3590, Corning Inc. Life Sciences) in carbonate coating buffer (cat. no. CB01100, ThermoFisher) at 4 °C overnight. The next day the plate was blocked with 20% nonfat milk (cat. no. A0830,1000, AppliChem Panreac) for 24 h at 4 °C, and incubated with antibodies at the indicated dilution or at 37 °C for 1 h. Next, horseradish peroxidase‐linked anti‐mouse IgG (cat. no. LNA931V, GE Healthcare, USA) was added to the plate at a dilution of 1:1000 for 1 h at 37 °C. Between each step, the plate was washed with PBS at least three times. Then, 100 µl ultra TMB substrate solution (cat. no. 34028, ThermoFisher) was added to the plate at room temperature for 15 min, followed by the addition of 50 µl of stop solution (2 M H2SO4). The OD450 was measured by a plate reader (Tecan Spark, Tecan Group Ltd., Switzerland). Mouse anti‐HA antibody (cat. no. 901523, BioLegend, USA, 1:1000 dilution) was used as a positive control.

[6] = Membrane penetration inferred from intracellular gene switch activation; assay type: in vitro ADME; details: HEK-293T with intracellular ComR switch; inferred from SEAP induction
Description: Human embryonic kidney cells (HEK‐293T, ATCC: CRL‐11268), human telomerase‐immortalized mesenchymal stem cells (hMSC‐TERT),^[ [56] ^] human fibrosarcoma cells (HT‐1080, ATCC: CCL‐121), human cervical adenocarcinoma cells (HeLa, ATCC: CCL‐2), Chinese hamster ovary cells (CHO‐K1, ATCC: CCL‐61), baby hamster kidney cells (BHK‐21, ATCC: CCL‐10), and human liver cancer cells (Hep G2, ATCC: CRL‐11997) were cultured in Dulbecco's modified Eagle's medium (DMEM, cat. no. 52100–39, Thermo Fisher Scientific) containing 10% fetal bovine serum (FBS, cat. no. F7524, lot no. 022M3395, Sigma‐Aldrich) and 1% (v/v) streptomycin/penicillin (cat. no. L0022, Biowest). All mammalian cells were grown at 37 °C in a humidified atmosphere containing 5% CO2. For all transient transfections, 15 000 cells were seeded per well of a 96‐well plate (cat. no. 3599, Corning Inc. Life Sciences) overnight. Cells were transfected by mixing 100 ng of DNA and polyethyleneimine (PEI, 24765‐2, Polysciences) in a ratio of 1:4. […] The cell density was calculated using a cell counter (CellDrop BF Brightfield Cell Counter, DeNovix Inc.)
SEAP reporter levels in cell culture supernatants were quantified using a colorimetric assay. […] Absorbance at 405 nm was recorded using a plate reader (Tecan Spark, Tecan Group Ltd., Switzerland) for 30 min at 37 °C to determine the SEAP levels.

Structure (SMILES): CC[C@H](C)[C@H](NC(=O)[C@H](CCSC)NC(=O)[C@H](Cc1ccccc1)NC(=O)[C@H](Cc1ccccc1)NC(=O)[C@@H]1CCCN1C(=O)[C@@H](N)C(C)C)C(=O)N[C@@H](Cc1ccc(O)cc1)C(=O)N[C@@H](Cc1ccc(O)cc1)C(=O)O [XIP, sigX/comX-inducing peptide] (H-VPFFMIYY-OH)
- Effect on growth kinetics (HEK-293T cells [1]): ns and negligible effect
- Serum IFN-γ (significance) ([2]; vs non-induced): ns
- Serum TNF-α (significance) ([2]; vs non-induced): ns
- Serum IL-6 ([2]; undetectable): Below 0.82 pg/ml
- Cell viability under overstimulation ([3]; ComREXTRA-expressing HEK-293T, 50/200/500 µmol/L, 24 h, n = 4): ns and no significant difference of cell viability
- Cytotoxicity (result in words) ([3]; HEK-293T / HEK-XIP / mammalian cells, concentration range tested): no significant impact on cell viability
- Cell viability (significance) ([3]; engineered HEK-293T, ComR operator variants, 150 and 500 µmol/L, n = 4): ns
- Cell viability (significance) ([3]; seven cell lines expressing ComREXTRA-based system, 250 μM, n = 4): ns
- Cell viability (significance) ([3]; seven cell lines with first system (HEK-293T, hMSC-TERT, HT-1080, HeLa, CHO-K1, BHK21, HepG2), 250 μM, n = 4): ns
- Effect on constitutive SEAP production (HEK-293T cells [4]): ns and negligible effect
- Peptide-specific T-cell response [5]: no peptide‐specific T‐cell response was detected
- Antibody response (C57BL/6 mice): no detectable antibodies’ response
- Antibody response (C57BL/6 mice; listed as XIP_WT): ns
- Membrane penetration [6]: penetration ability across the mammalian cell membrane; also recorded: efficiently traverses the mammalian cell membrane
